A short description of series [1]: Selectivity index, ratio of IC50 for recombinant bovine eNOS to IC50 for recombinant mouse iNOS.
A further series deals with T1, Nitric oxide synthase 3 (Bos taurus, UniProt P29473).
T1 sequence (P29473 whole entry): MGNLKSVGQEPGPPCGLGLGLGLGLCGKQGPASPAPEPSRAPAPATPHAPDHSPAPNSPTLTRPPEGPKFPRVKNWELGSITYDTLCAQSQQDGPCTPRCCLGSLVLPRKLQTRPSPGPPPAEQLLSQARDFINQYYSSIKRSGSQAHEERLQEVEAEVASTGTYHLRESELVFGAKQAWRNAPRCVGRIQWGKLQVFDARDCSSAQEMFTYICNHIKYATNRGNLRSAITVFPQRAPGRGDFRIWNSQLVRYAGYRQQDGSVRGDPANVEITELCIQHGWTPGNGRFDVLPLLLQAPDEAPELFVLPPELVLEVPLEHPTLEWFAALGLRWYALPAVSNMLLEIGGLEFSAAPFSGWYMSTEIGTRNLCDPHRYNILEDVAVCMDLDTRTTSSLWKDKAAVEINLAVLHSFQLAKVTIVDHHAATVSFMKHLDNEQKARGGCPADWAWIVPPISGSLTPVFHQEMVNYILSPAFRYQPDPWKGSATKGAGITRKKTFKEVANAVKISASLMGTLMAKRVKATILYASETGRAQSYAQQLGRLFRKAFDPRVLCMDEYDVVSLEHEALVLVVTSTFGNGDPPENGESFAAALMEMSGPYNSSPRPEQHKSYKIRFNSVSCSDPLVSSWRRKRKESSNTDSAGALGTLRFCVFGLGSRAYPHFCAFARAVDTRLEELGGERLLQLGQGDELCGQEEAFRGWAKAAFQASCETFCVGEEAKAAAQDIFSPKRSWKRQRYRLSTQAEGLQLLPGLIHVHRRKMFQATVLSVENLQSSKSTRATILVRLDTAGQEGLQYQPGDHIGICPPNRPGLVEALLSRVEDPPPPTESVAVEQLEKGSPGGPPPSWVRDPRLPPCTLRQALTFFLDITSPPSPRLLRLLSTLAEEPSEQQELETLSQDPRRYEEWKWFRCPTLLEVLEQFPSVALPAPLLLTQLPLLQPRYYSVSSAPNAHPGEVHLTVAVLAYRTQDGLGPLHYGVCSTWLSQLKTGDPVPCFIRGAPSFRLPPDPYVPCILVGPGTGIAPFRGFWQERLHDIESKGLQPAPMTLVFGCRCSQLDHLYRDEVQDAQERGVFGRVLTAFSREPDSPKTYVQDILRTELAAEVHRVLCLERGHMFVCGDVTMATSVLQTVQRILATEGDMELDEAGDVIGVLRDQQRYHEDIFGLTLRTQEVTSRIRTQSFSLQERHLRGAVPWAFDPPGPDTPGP
The series can be described thus: Inhibition of recombinant bovine eNOS using [3H]L-arginine as substrate preincubated for 15 mins followed by NADPH addition measured after 20 mins in presence of FMN/FAD by liquid scintillation counting method.

The subject of series [2] is C6. The series can be described thus: Cytotoxicity against rat C6 cells assessed as cell proliferation at 0.25 mM after 48 hrs by MTT assay relative to control. The settings on record: C6, 48 h, read-out: Activity. The class given is functional.
The nature of series [3]: Cytotoxicity against rat CTX/TNA2 cells assessed as inhibition of cell proliferation at 0.25 to 2 mM up to 72 hrs by MTT assay. The class given is cell-based. The settings on record: 2000 µM. Background: Tetrazolium dyes change colour on reduction, which living cells bring about.
Series [4] deals with C6. As to the kind of experiment: Cytotoxicity against rat C6 cells assessed as cell proliferation at 2 mM after 72 hrs by MTT assay relative to control. The class given is functional. The settings on record: C6, 72 h, read-out: Activity.
A short description of series [5]: Cytotoxicity against rat CTX/TNA2 cells assessed as cell proliferation at 1 mM after 48 hrs by MTT assay relative to control. The class given is cell-based. The settings on record: read-out: Activity.
The nature of series [6]: Half life in pH 7.4 PBS buffer after 24 hrs by HPLC analysis. The settings on record: pH 7.4, pH 7.4. The class given is physicochemical.
Series [7] relates to C6. The series can be described thus: Cell cycle arrest in rat C6 cells assessed as accumulation at S phase at 1.5 mM after 72 hrs by propidium iodide staining based flow cytometry (reference value: 22.64%). The class given is functional. Background: In flow cytometry, cells or beads pass a laser one at a time.
The subject of series [8] is C6. The series can be described thus: Cytotoxicity against rat C6 cells assessed as LDH release at 0.5 mM after 72 hrs by CytoTox96 non-radioactive assay (reference value: 5.41%). The class given is functional. (LDH leaks from cells whose membrane has failed.)
Series [9] deals with C6. The series can be described thus: Cytotoxicity against rat C6 cells assessed as LDH release at 1 mM after 72 hrs by CytoTox96 non-radioactive assay (reference value: 5.41%). The class given is functional.
Series [10] concerns the target T2, Nitric oxide synthase, inducible (Mus musculus, UniProt P29477).
T2 sequence (P29477 whole entry): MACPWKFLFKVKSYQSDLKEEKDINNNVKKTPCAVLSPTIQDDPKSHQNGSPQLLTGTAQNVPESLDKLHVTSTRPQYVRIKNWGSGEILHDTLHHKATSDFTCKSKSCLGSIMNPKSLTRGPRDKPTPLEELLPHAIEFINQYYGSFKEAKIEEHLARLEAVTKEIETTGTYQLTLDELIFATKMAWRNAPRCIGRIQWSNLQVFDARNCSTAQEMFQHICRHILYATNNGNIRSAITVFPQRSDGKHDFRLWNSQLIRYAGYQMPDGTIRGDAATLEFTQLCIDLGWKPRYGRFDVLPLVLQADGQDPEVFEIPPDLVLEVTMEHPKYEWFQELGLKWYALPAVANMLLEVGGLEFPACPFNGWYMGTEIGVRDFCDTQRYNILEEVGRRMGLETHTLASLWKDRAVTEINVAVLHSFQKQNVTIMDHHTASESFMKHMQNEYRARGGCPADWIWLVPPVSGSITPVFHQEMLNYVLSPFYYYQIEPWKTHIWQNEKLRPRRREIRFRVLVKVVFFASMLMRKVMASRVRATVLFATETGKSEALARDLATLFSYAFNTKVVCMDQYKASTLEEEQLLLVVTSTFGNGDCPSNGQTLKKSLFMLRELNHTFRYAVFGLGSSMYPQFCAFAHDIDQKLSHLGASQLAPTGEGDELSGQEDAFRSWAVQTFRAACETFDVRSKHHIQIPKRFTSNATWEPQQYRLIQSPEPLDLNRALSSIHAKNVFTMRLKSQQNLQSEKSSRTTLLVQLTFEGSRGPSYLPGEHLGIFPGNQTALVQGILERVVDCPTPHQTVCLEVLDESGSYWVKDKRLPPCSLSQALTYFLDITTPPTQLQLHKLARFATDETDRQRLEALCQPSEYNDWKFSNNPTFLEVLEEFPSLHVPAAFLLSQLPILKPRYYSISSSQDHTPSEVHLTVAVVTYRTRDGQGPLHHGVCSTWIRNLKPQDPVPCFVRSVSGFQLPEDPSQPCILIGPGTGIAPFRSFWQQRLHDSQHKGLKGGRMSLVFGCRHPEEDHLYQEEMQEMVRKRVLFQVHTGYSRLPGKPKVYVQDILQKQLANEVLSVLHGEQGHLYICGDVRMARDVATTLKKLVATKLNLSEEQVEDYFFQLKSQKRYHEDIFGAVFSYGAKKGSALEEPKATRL
As to the kind of experiment: Inhibition of recombinant mouse iNOS using [3H]L-arginine as substrate preincubated for 15 mins followed by NADPH addition measured after 20 mins in presence of FMN/FAD by liquid scintillation counting method.

For orientation: IC50 means the concentration that inhibits the measured activity by half. The term half-life denotes the time in which the quantity being followed falls by half.

Structures are written as SMILES.

With `CC(=N)NCc1cccc(CNC(=O)[C@@H]2CCCN2)c1.Cl.Cl`, the Ratio IC50 in [1] was 4570. Moreover, the IC50 on Nitric oxide synthase 3 was 265 µM; in [10], 0.058 µM. Moreover, in the series on C6 [2], the growth at 250 µM is 80.4%. The Activity entry in [3] is recorded as “Non-Toxic”; with C6 [7], 12.12%; with C6 [8], 27.21%; in the series with C6 [9], 16.78%. In addition, the growth at 2000 µM with C6 [4] was determined as 55.2%. The viability at 48 h, 1000 µM in series [5] came out at 125%. The compound also had a half-life in series [6] of more than 24 h.

The values above are taken from ChEMBL document CHEMBL4152230, “Discovery of N-{3-[(ethanimidoylamino)methyl]benzyl}-l-prolinamide dihydrochloride: A new potent and selective inhibitor of the inducible nitric oxide synthase as a promising agent for the therapy of malignant glioma” (Eur J Med Chem, 2018).
